# ChEMBL document CHEMBL1201862, “PubChem BioAssay data set” (2004)
#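 Tested at 5 concentrations; 48 h exposure; 96-well plates; endpoints linearly interpolated, else capped at highest concentration. At the GI50, growth is halved.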 The source made the active and inactive calls. Rule as the data show it: active = GI50 up to about 1.1 µM and inactive = higher.
# Assays:
# Assay in all cases: NCI tumour cell line growth inhibition, 48 h
# [1] = system: HT-29
# [2] = system: MDA-N
# [3] = system: BT-549
# [4] = system: HOP-62
# [5] = system: NCI/ADR-RES
# [6] = system: DU-145
# [7] = system: CCRF-CEM
# [8] = system: KM12
# [9] = system: NCI-H460
# [10] = system: SK-MEL-2
# [11] = system: NCI-H226
# [12] = system: MDA-MB-435
# [13] = system: IGROV-1
# [14] = system: CAKI-1
# [15] = system: SK-OV-3
# [16] = system: A549
# [17] = system: UACC-62
# [18] = system: OVCAR-5
# [19] = system: SNB-19
# [20] = system: MCF7
Compound,GI50 [1],GI50 [2],GI50 [3],GI50 [4],GI50 [5],GI50 [6],GI50 [7],GI50 [8],GI50 [9],GI50 [10],GI50 [11],GI50 [12],GI50 [13],GI50 [14],GI50 [15],GI50 [16],GI50 [17],GI50 [18],GI50 [19],GI50 [20]
Cc1c(Cl)cc(C(C)(C)C)c(O)c1Cc1c(C)c(Cl)cc(C(C)(C)C)c1O,1.54 µM (inactive),2.18 µM (inactive),2.81 µM (inactive),2.96 µM (inactive),2.14 µM (inactive),1.96 µM (inactive),0.303 µM (active),1.44 µM (inactive),0.634 µM (active),1.73 µM (inactive),2.22 µM (inactive),2.06 µM (inactive),1.1 µM (active),1.32 µM (inactive),2.98 µM (inactive),0.804 µM (active),1.62 µM (inactive),3.43 µM (inactive),1.8 µM (inactive),1 µM (active)
CN(C)CC1CCC/C(=C\c2ccc(OC(=O)c3ccc(Cl)cc3)cc2)C1=O (stereo not given),1.95 µM (inactive),2.38 µM (inactive),2.81 µM (inactive),3.99 µM (inactive),2.12 µM (inactive),2.39 µM (inactive),0.33 µM (active),1.57 µM (inactive),5.36 µM (inactive),4.31 µM (inactive),3.06 µM (inactive),1.95 µM (inactive),2.23 µM (inactive),2.19 µM (inactive),10.3 µM (inactive),2.38 µM (inactive),3.3 µM (inactive),2.25 µM (inactive),3.36 µM (inactive),0.33 µM (active)
C[C@]12CC[C@H](O)C=C1CC[C@@H]1[C@@H]2CC[C@]2(C)C(=N/O)/C(=C/c3ccncc3)C[C@@H]12,4.04 µM (inactive),9.51 µM (inactive),20 µM (inactive),13.2 µM (inactive),17.5 µM (inactive),6.34 µM (inactive),7.96 µM (inactive),8 µM (inactive),6.1 µM (inactive),10.3 µM (inactive),10.2 µM (inactive),11.1 µM (inactive),14.8 µM (inactive),14.9 µM (inactive),15.6 µM (inactive),5.19 µM (inactive),5.98 µM (inactive),19.2 µM (inactive),11.9 µM (inactive),3.87 µM (inactive)
COc1cc(C2c3cc4c(cc3OC(NC3CCCCC3)C2C)OCO4)cc(OC)c1OC (stereo not given),0.383 µM (active),0.188 µM (active),0.649 µM (active),2.38 µM (inactive),0.296 µM (active),0.478 µM (active),0.422 µM (active),0.407 µM (active),0.488 µM (active),0.578 µM (active),1.52 µM (inactive),0.19 µM (active),0.665 µM (active),0.409 µM (active),0.394 µM (active),0.885 µM (active),0.379 µM (active),3.03 µM (inactive),0.45 µM (active),0.485 µM (active)
COc1ccc(/C=C2\NC(=S)N(/C=C3\C(=O)Oc4ccccc4C3=O)C2=O)cc1OC,> 100 µM (inactive),> 100 µM (inactive),> 100 µM (inactive),> 100 µM (inactive),> 100 µM (inactive),> 100 µM (inactive),45 µM (inactive),90.2 µM (inactive),> 100 µM (inactive),> 100 µM (inactive),> 100 µM (inactive),> 100 µM (inactive),78.3 µM (inactive),> 100 µM (inactive),> 100 µM (inactive),> 100 µM (inactive),> 100 µM (inactive),> 100 µM (inactive),> 100 µM (inactive),> 100 µM (inactive)
CC(C)c1cc(C(C)C)c(P2(=O)CC3C(Cl)(Cl)C3(C)C2)c(C(C)C)c1 (stereo not given),9.33 µM (inactive),10.9 µM (inactive),13.7 µM (inactive),10.3 µM (inactive),6.04 µM (inactive),14.5 µM (inactive),2.24 µM (inactive),10.6 µM (inactive),11.5 µM (inactive),11.3 µM (inactive),16.7 µM (inactive),9.73 µM (inactive),12.1 µM (inactive),4.71 µM (inactive),16.4 µM (inactive),9.33 µM (inactive),8.04 µM (inactive),16.3 µM (inactive),7.91 µM (inactive),7.31 µM (inactive)
O=c1ccc2ccc(OP(=O)(O)O)cc2o1,> 100 µM (inactive),> 100 µM (inactive),> 100 µM (inactive),> 100 µM (inactive),> 100 µM (inactive),93.1 µM (inactive),> 100 µM (inactive),> 100 µM (inactive),> 100 µM (inactive),> 100 µM (inactive),> 100 µM (inactive),> 100 µM (inactive),> 100 µM (inactive),> 100 µM (inactive),> 100 µM (inactive),> 100 µM (inactive),> 100 µM (inactive),> 100 µM (inactive),> 100 µM (inactive),> 100 µM (inactive)
CCSC1=N/C(=C\c2ccco2)C(Cl)=N1,> 100 µM (inactive),> 100 µM (inactive),> 100 µM (inactive),> 100 µM (inactive),> 100 µM (inactive),> 100 µM (inactive),> 100 µM (inactive),> 100 µM (inactive),> 100 µM (inactive),> 100 µM (inactive),> 100 µM (inactive),> 100 µM (inactive),> 100 µM (inactive),> 100 µM (inactive),> 100 µM (inactive),> 100 µM (inactive),> 100 µM (inactive),> 100 µM (inactive),> 100 µM (inactive),> 100 µM (inactive)
O=C(c1nc2ccc([N+](=O)[O-])cc2nc1O)C(O)c1ccc2c(c1)OCO2 (stereo not given),> 100 µM (inactive),70.8 µM (inactive),> 100 µM (inactive),> 100 µM (inactive),> 100 µM (inactive),> 100 µM (inactive),83.9 µM (inactive),> 51.2 µM (inactive),> 100 µM (inactive),> 100 µM (inactive),> 100 µM (inactive),93.1 µM (inactive),> 100 µM (inactive),> 96.2 µM (inactive),> 100 µM (inactive),> 100 µM (inactive),96.4 µM (inactive),> 100 µM (inactive),> 100 µM (inactive),96.8 µM (inactive)
COC(=O)c1ccccc1C1CN=NC12Cc1c(C)cccc1C2=O (stereo not given),> 100 µM (inactive),> 100 µM (inactive),> 100 µM (inactive),> 100 µM (inactive),60.8 µM (inactive),> 100 µM (inactive),> 100 µM (inactive),> 100 µM (inactive),> 100 µM (inactive),48.3 µM (inactive),> 100 µM (inactive),> 100 µM (inactive),> 100 µM (inactive),> 100 µM (inactive),> 100 µM (inactive),61.5 µM (inactive),> 100 µM (inactive),71.8 µM (inactive),> 100 µM (inactive),> 100 µM (inactive)
COc1ccc(C2CC(c3c(O)ccc4ccccc34)=NN2c2ccc([N+](=O)[O-])cc2[N+](=O)[O-])cc1OC (stereo not given),10.6 µM (inactive),28.9 µM (inactive),30 µM (inactive),21.5 µM (inactive),3.66 µM (inactive),30.3 µM (inactive),6.03 µM (inactive),13.2 µM (inactive),14.6 µM (inactive),19.4 µM (inactive),13.9 µM (inactive),24 µM (inactive),13 µM (inactive),16.9 µM (inactive),26.4 µM (inactive),17.1 µM (inactive),15.3 µM (inactive),24.3 µM (inactive),15.3 µM (inactive),17.9 µM (inactive)
CCCCCCCCOC1C(O)C(O)C(O)C(O)C12CO2 (stereo not given),49.5 µM (inactive),32.4 µM (inactive),37.6 µM (inactive),44.6 µM (inactive),40.5 µM (inactive),76.6 µM (inactive),28.3 µM (inactive),43.9 µM (inactive),45.4 µM (inactive),53.8 µM (inactive),86.1 µM (inactive),29.8 µM (inactive),75.5 µM (inactive),90.4 µM (inactive),38.3 µM (inactive),49.5 µM (inactive),83.4 µM (inactive),> 10 µM (inactive),91.4 µM (inactive),46.5 µM (inactive)
COC(=O)/C=C\COCC1C2CCC(=O)C21 (stereo not given),6.05 µM (inactive),> 25 µM (inactive),11 µM (inactive),> 25 µM (inactive),17.4 µM (inactive),> 25 µM (inactive),5.66 µM (inactive),17.9 µM (inactive),6.79 µM (inactive),> 25 µM (inactive),18.5 µM (inactive),> 25 µM (inactive),10.5 µM (inactive),0.632 µM (active),> 25 µM (inactive),> 25 µM (inactive),16.4 µM (inactive),> 25 µM (inactive),> 25 µM (inactive),10.3 µM (inactive)
C=COC(=O)N[C@H]1CCc2cc(OC)c(OC)c(OC)c2-c2ccc(SC)c(=O)cc21,< 0.01 µM (active),< 0.01 µM (active),< 0.01 µM (active),< 0.0157 µM (active),< 0.01 µM (active),< 0.01 µM (active),< 0.01 µM (active),< 0.01 µM (active),< 0.01 µM (active),< 0.01 µM (active),0.0372 µM (active),< 0.01 µM (active),< 0.01 µM (active),< 0.01 µM (active),0.0255 µM (active),< 0.01 µM (active),< 0.01 µM (active),0.173 µM (active),0.0101 µM (active),< 0.0136 µM (active)
